{"source": "patent US20240245802A1", "about": "“PHARMACEUTICAL COMPOSITION FOR PREVENTING OR TREATING BRAIN TUMORS COMPRISING EXTRACELLULAR VESICLES LOADED WITH MITOCHONDRIA-TARGETING PHOTOSENSITIZER AS AN ACTIVE INGREDIENT” (ExoTheranostics, Inc., priority 2023, published 2024)", "key": {"[1]": {"tested_on": "U87MG cells", "experiment": "Intracellular localization by CLSM, MitoTracker Green", "assay_type": "cell-based, human", "conditions": "free Ce6 or TPP-Ce6, 2 h", "method": "U87MG and bEnd.3 cells (2×10^3 cells/well) were prepared in glass-bottom dishes (35×10 mm^2) and incubated for 24 h. Free Ce6, free TPP-Ce6, and bEV(TPP-Ce6) in serum-free medium were added to the cells at a final TPP-Ce6 (or Ce6) concentration of 0.15 μM. After 2 h of incubation at 37° C., the cells were washed three times with PBS and stained with 1 μg/mL DAPI (Thermo Fisher Scientific) for 10 min. Then, the cells were stained with 1 μM of LysoTracker Green DND-26 (Thermo Fisher Scientific) and 500 nM of MitoTracker Green FM (Thermo Fisher Scientific) for endo/lysosome and mitochondria staining, respectively. The glass-bottom dish was placed in live-cell chamber systems (5% CO2 at 37° C.) connected to a CLSM (Al Plus, Nikon, Japan). The obtained fluorescent images were analyzed for the quantification of colocalization ratios."}, "[2]": {"experiment": "ROS generation in cell-free system (DCF)", "conditions": "before and after 660-nm laser treatment", "method": "(§1) The generation of ROS by Ce6 and TPP-Ce6 before and after 660 nm laser treatment was quantified using 2′,7′-dichlorofluorescein (DCF) in a cell-free system. After the sample solutions were treated with DCF for 1 h in the dark, ROS generation was determined by measuring the fluorescence signal from the samples. The intracellular ROS production in U87MG cells after various treatments was measured using DCF-DA. U87MG cells were inoculated into 12 well-plates at a density of 3×10^5 cells/well and cultured overnight. After the cells were incubated with 10 μM DCF-DA for 15 min, they were treated with Ce6, TPP-Ce6, and bEV(TPP-Ce6) at a TPP-Ce6 (or Ce6) concentration of 10 μM. After 4 h of incubation, the cells were trypsinized and divided into two groups. One of the groups was treated with a 660 nm laser for 1 min. The cells not subjected to laser treatment were kept as a control. After 30 min of incubation in the dark, relative ROS generation levels of each sample were quantified by flow cytometry (CytoFLEX)."}, "[3]": {"tested_on": "U87MG cells", "experiment": "Intracellular ROS generation (DCF-DA)", "assay_type": "cell-based, human", "method": "as §1\nTo visualize ROS generation by TPP-Ce6 and bEV(TPP-Ce6) in U87MG cells under light irradiation, the cells were inoculated into 12-well plates (3×10^5 cells/well) and stained with 10 μM of DCF-DA. […] The green fluorescence signals indicating intracellular ROS were observed using a fluorescence microscope (Nikon Eclipse Ti-S, Nikon, Tokyo, Japan)."}, "[4]": {"tested_on": "U87MG cells", "experiment": "JC-1 staining assay (mitochondrial membrane potential)", "assay_type": "cell-based, human", "conditions": "10 μM, 4 h, 660-nm laser 1 min", "method": "Changes in the mitochondria membrane potentials of U87MG cells after various treatments were evaluated using a conventional JC-1 staining assay. U87MG cells were cultured in 12-well plates (3×10^5 cells/well) 24 h before treatment with Ce6, TPP-Ce6, and bEV(TPP-Ce6) (10 µM of Ce6 or TPP-Ce6). After 4 h of incubation, the cells were exposed to a 660-nm laser for 1 min. The untreated cells were adopted as a control. Then, the irradiated cells were treated with JC-1 solution in PBS (2.5 μg/mL) for 20 min in the dark, then rinsed twice with PBS. Fluorescent images of the cells were obtained by fluorescence microscopy (Nikon Eclipse Ti—S). Red fluorescence signals indicate the JC-1 aggregates in polarized mitochondria of healthy cells whereas green fluorescence signals reflect the JC-1 monomers in depolarized mitochondria, which indicates the loss in mitochondrial membrane potential, an indicator of mitochondrial damage."}, "[5]": {"tested_on": "U87MG cells", "experiment": "In vitro phototoxicity, MTT assay", "assay_type": "cell-based, human", "conditions": "10 μM", "method": "To investigate the photodynamic effects of TPP-Ce6-loaded EVs, the viability of U87MG cells after various treatments in the presence or absence of laser irradiation was measured using a standard MTT assay. U87MG cells were treated with Ce6, TPP-Ce6, and bEV(TPP-Ce6) at an equivalent Ce6 (or TPP-Ce6) concentration (10 μM, 5.38×10^10 bEVs/mL). Cytotoxicity of blank bEVs against U87 cells was also assessed at various concentrations of bEVs. After 4 h of treatments, the cells were illuminated with a 660 nm laser for 1 min. The cells not subjected to light irradiation were adopted as a negative control. The cells were further incubated for 24 h, and their viabilities were measured."}, "[6]": {"tested_on": "orthotopic GBM-xenografted mice", "experiment": "In vivo biodistribution and brain-tumor accumulation by IVIS", "conditions": "i.v. 0.8 μmol/kg", "method": "(§2) All animal experiments were approved by the Institutional Animal Care and Use Committee at Gachon University (Approval number: LCDI-2017-0131). Orthotopic GBM-xenografted mice were prepared using U87MG cells stably expressing luciferase. Briefly, male athymic mice of 5 weeks of age (20-30 g) were placed on a stereotactic device (Harvard Apparatus, USA) under inhalation anesthesia using 1-1.5% isoflurane. U87MG-luc cells (1×10^5 cells) suspended in 2 μL of PBS were injected into the right striatum at a flow rate of 0.5 μL/min through a small hole in the skull at a position 2.0 mm lateral, 0.2 mm anterior, and 3.2 mm ventral to the bregma. The formation of brain tumors in the mice was identified by bioluminescence intensity (BLI).\nTo evaluate in vivo real-time biodistribution of Ce6, TPP-Ce6, and bEV(TPP-Ce6), orthotopic GBM-xenografted mice (n=4) were intravenously administered with 100 μL of each sample (0.8 μmol/kg for Ce6 or TPP-Ce6). Whole-body fluorescence images were acquired at the predetermined time points within 24 h after i.v. injection using an IVIS optical imaging system with a long wavelength emission filter (640-720 nm) (Ami HT imaging system, Spectral Instruments Imaging, Tucson, AZ, USA). Quantitative analysis of fluorescence intensity in the images was carried out using the region of interest (ROI) function of Aura Imaging 2.20 software (Spectral Instruments Imaging). […]"}, "[7]": {"tested_on": "luciferase-expressing U87MG brain tumors", "experiment": "In vivo anti-brain tumor efficacy with laser irradiation", "set-up": "species or system mice", "method": "as §2\nThe orthotopic GBM-bearing mice were randomly divided into five groups (n=4) and injected with one of the following regimens by i.v. injection dose of 0.8 μmol/kg Ce6 (or TPP-Ce6) via the tail vein: • (i) PBS, • (ii) PBS+L (L indicates light irradiation), • (iii) Ce6 (0.8 μmol/kg)+L, • (iv) TPP-Ce6 (0.8 μmol/kg)+L, and • (v) bEV(TPP-Ce6) (0.8 μmol/kg)+L.\nAt 4 h post-injection, the tumor sites of the mice were irradiated with a 660-nm laser (150 mW, 5 min) on the skull. […] Regions of bioluminescence signal were determined using Aura imaging software (Spectral Instruments Imaging). […]"}}, "data": [{"substance": "chlorin e6 [Ce6]", "values": [{"measurement": "Mander's overlap coefficient with MitoTracker Green", "setting": "[1]", "value": "0.31±0.03"}, {"measurement": "Relative ROS level in cell-free system", "setting": "[2]", "value": "significantly increased the ROS generation"}, {"measurement": "Relative intracellular ROS level, effect of light", "setting": "[3]; after light irradiation (660 nm, 1 min) vs before", "value": "significantly increased after 1 min of light exposure"}, {"measurement": "DCF-DA fluorescence signals (images)", "setting": "[3]; without light", "value": "weak fluorescence signals"}, {"measurement": "JC-1 red fluorescence / red to green fluorescence ratio", "setting": "[4]", "value": "drastically decreased"}, {"measurement": "Cell viability under light irradiation", "setting": "[5]; 660 nm laser 1 min, 24 h", "value": 72.5, "unit": "%"}, {"measurement": "Viability / cytotoxicity without light", "setting": "[5]; no light irradiation", "value": "slightly decreased"}, {"measurement": "Fluorescence in the brain", "setting": "[6]; 24 h post-injection", "value": "weak fluorescence signals"}, {"measurement": "Whole brain-to-whole body fluorescence intensity ratio, time course", "setting": "[6]; whole body at 1 min", "value": "similar"}, {"measurement": "H&E staining of brain tumor tissue", "setting": "[7]; day 9, upon light irradiation", "value": "low cell density and nuclear shrinkage"}, {"measurement": "Tumor growth (bioluminescence intensity)", "setting": "[7]; i.v. 0.8 μmol/kg, 660 nm laser 5 min at 4 h, 9 days", "value": "limited suppression of tumor growth"}]}]}
